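Cells were grown in 96-well plates and exposed to each compound for 48 hours at five concentrations; endpoints were interpolated linearly between bracketing concentrations, or set to the highest concentration if not reached. GI50 marks 50% less growth.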 Activity calls are given as the source filed them. Rule as the data show it: active = GI50 up to about 1.1 µM and inactive = higher.
Tests used:
Test in all cases: NCI-60 cell line screen, 48 h
CAKI-1 = test system: CAKI-1
HOP-92 = test system: HOP-92
SK-MEL-28 = test system: SK-MEL-28
786-0 = test system: 786-0
PC-3 = test system: PC-3
NCI-H460 = test system: NCI-H460
SW-620 = test system: SW-620
HT-29 = test system: HT-29
OVCAR-3 = test system: OVCAR-3
SF-295 = test system: SF-295
UACC-257 = test system: UACC-257
RXF 393 = test system: RXF 393
EKVX = test system: EKVX
LOX IMVI = test system: LOX IMVI
NCI-H522 = test system: NCI-H522
NCI-H226 = test system: NCI-H226
RPMI-8226 = test system: RPMI-8226
HL-60 = test system: HL-60
HCT-15 = test system: HCT-15
MOLT-4 = test system: MOLT-4
U-251 = test system: U-251
SK-MEL-2 = test system: SK-MEL-2
COLO 205 = test system: COLO 205
OVCAR-5 = test system: OVCAR-5
SK-MEL-5 = test system: SK-MEL-5
SF-268 = test system: SF-268
UO-31 = test system: UO-31
M14 = test system: M14
OVCAR-4 = test system: OVCAR-4
BT-549 = test system: BT-549
HCC 2998 = test system: HCC 2998
SN12C = test system: SN12C
T47D = test system: T47D
A549 = test system: A549
MDA-MB-231 = test system: MDA-MB-231
MDA-MB-435 = test system: MDA-MB-435
KM12 = test system: KM12
MDA-N = test system: MDA-N
SR = test system: SR
SF-539 = test system: SF-539
IGROV-1 = test system: IGROV-1
MCF7 = test system: MCF7
NCI-H23 = test system: NCI-H23
TK-10 = test system: TK-10
Malme-3M = test system: Malme-3M
CCRF-CEM = test system: CCRF-CEM
HOP-62 = test system: HOP-62
SK-OV-3 = test system: SK-OV-3
Hs-578T = test system: Hs-578T
SNB-19 = test system: SNB-19
DU-145 = test system: DU-145
ACHN = test system: ACHN
OVCAR-8 = test system: OVCAR-8
UACC-62 = test system: UACC-62
A498 = test system: A498
NCI/ADR-RES = test system: NCI/ADR-RES
HCT-116 = test system: HCT-116
SNB-75 = test system: SNB-75
K562 = test system: K562

SMILES: Cc1c(N)nc([C@H](CC(N)=O)NC[C@H](N)C(N)=O)nc1C(=O)N[C@H](C(=O)N[C@H](C)[C@@H](O)CC(=O)N[C@H](C(=O)NC(O[C@@H]1O[C@@H](C)[C@@H](N)[C@@H](O)[C@H]1O)C(O)c1nc(-c2nc(C(=O)NCCC[S+](C)C)cs2)cs1)[C@@H](C)O)[C@H](O[C@@H]1O[C@@H](CO)[C@@H](O)[C@H](O)[C@@H]1O[C@H]1O[C@H](CO)[C@@H](O)[C@H](OC(N)=O)[C@@H]1O)c1c[nH]cn1 (stereo not given in full)
- GI50 (CAKI-1): 73.8 µM (inactive)
- GI50 (HOP-92): 24.6 µM (inactive)
- GI50 (SK-MEL-28): > 100 µM (inactive)
- GI50 (786-0): 13.9 µM (inactive)
- GI50 (PC-3): 65 µM (inactive)
- GI50 (NCI-H460): 2.79 µM (inactive)
- GI50 (SW-620): > 100 µM (inactive)
- GI50 (HT-29): 82.8 µM (inactive)
- GI50 (OVCAR-3): 95.3 µM (inactive)
- GI50 (SF-295): 5.46 µM (inactive)
- GI50 (UACC-257): > 100 µM (inactive)
- GI50 (RXF 393): 25.8 µM (inactive)
- GI50 (EKVX): > 100 µM (inactive)
- GI50 (LOX IMVI): 15.2 µM (inactive)
- GI50 (NCI-H522): 15.1 µM (inactive)
- GI50 (NCI-H226): 21 µM (inactive)
- GI50 (RPMI-8226): > 100 µM (inactive)
- GI50 (HL-60): > 100 µM (inactive)
- GI50 (HCT-15): 34.4 µM
- GI50 (MOLT-4): 38.6 µM (inactive)
- GI50 (U-251): 92.5 µM (inactive)
- GI50 (SK-MEL-2): > 100 µM (inactive)
- GI50 (COLO 205): > 100 µM (inactive)
- GI50 (OVCAR-5): > 100 µM (inactive)
- GI50 (SK-MEL-5): 28.8 µM (inactive)
- GI50 (SF-268): 39.2 µM (inactive)
- GI50 (UO-31): 26.7 µM (inactive)
- GI50 (M14): > 100 µM (inactive)
- GI50 (OVCAR-4): > 100 µM (inactive)
- GI50 (BT-549): > 100 µM (inactive)
- GI50 (HCC 2998): 8.39 µM (inactive)
- GI50 (SN12C): > 100 µM (inactive)
- GI50 (T47D): > 100 µM (inactive)
- GI50 (A549): 19.7 µM (inactive)
- GI50 (MDA-MB-231): > 100 µM (inactive)
- GI50 (MDA-MB-435): > 100 µM (inactive)
- GI50 (KM12): 97.1 µM (inactive)
- GI50 (MDA-N): > 100 µM (inactive)
- GI50 (SR): 0.0109 µM (active)
- GI50 (SF-539): 2.2 µM (inactive)
- GI50 (IGROV-1): 33.3 µM (inactive)
- GI50 (MCF7): 39.4 µM (inactive)
- GI50 (NCI-H23): > 100 µM (inactive)
- GI50 (TK-10): > 100 µM (inactive)
- GI50 (Malme-3M): 37.2 µM (inactive)
- GI50 (CCRF-CEM): > 100 µM (inactive)
- GI50 (HOP-62): 5.18 µM (inactive)
- GI50 (SK-OV-3): > 100 µM (inactive)
- GI50 (Hs-578T): 6.17 µM (inactive)
- GI50 (SNB-19): > 100 µM (inactive)
- GI50 (DU-145): > 100 µM (inactive)
- GI50 (ACHN): 0.773 µM (active)
- GI50 (OVCAR-8): 48.9 µM (inactive)
- GI50 (UACC-62): 35.4 µM (inactive)
- GI50 (A498): 67.1 µM (inactive)
- GI50 (NCI/ADR-RES): 33.3 µM (inactive)
- GI50 (HCT-116): 15.1 µM (inactive)
- GI50 (SNB-75): 18.3 µM (inactive)

SMILES: CC(C)(C)[Si](C)(C)OC[C@H](/C=C\CCCC(=O)O)NC1(c2ccccc2)c2ccccc2-c2ccccc21
- GI50 (CAKI-1): 11.2 µM (inactive)
- GI50 (HOP-92): 11.1 µM (inactive)
- GI50 (SK-MEL-28): 16.7 µM (inactive)
- GI50 (786-0): 14 µM (inactive)
- GI50 (PC-3): 6.52 µM (inactive)
- GI50 (NCI-H460): 15.1 µM (inactive)
- GI50 (SW-620): 22.5 µM (inactive)
- GI50 (K562): 5.18 µM (inactive)
- GI50 (HT-29): 13.2 µM (inactive)
- GI50 (OVCAR-3): 12.5 µM (inactive)
- GI50 (SF-295): 16.4 µM (inactive)
- GI50 (UACC-257): 10.2 µM (inactive)
- GI50 (RXF 393): 10.2 µM (inactive)
- GI50 (EKVX): 12.2 µM (inactive)
- GI50 (LOX IMVI): 12.9 µM (inactive)
- GI50 (NCI-H522): 18.7 µM (inactive)
- GI50 (NCI-H226): 11.6 µM (inactive)
- GI50 (RPMI-8226): 4.17 µM (inactive)
- GI50 (HL-60): 8.53 µM (inactive)
- GI50 (HCT-15): 11.2 µM
- GI50 (MOLT-4): 5.52 µM (inactive)
- GI50 (U-251): 14.4 µM (inactive)
- GI50 (SK-MEL-2): 11.9 µM (inactive)
- GI50 (COLO 205): 13.6 µM (inactive)
- GI50 (OVCAR-5): 23.2 µM (inactive)
- GI50 (SK-MEL-5): 11.2 µM (inactive)
- GI50 (SF-268): 13.9 µM (inactive)
- GI50 (UO-31): 19.3 µM (inactive)
- GI50 (M14): 16.8 µM (inactive)
- GI50 (OVCAR-4): 14.8 µM (inactive)
- GI50 (BT-549): 24.5 µM (inactive)
- GI50 (HCC 2998): 14.5 µM (inactive)
- GI50 (SN12C): 11.6 µM (inactive)
- GI50 (T47D): 7.38 µM (inactive)
- GI50 (A549): 10.7 µM (inactive)
- GI50 (MDA-MB-231): 14.3 µM (inactive)
- GI50 (MDA-MB-435): 13.9 µM (inactive)
- GI50 (KM12): 15.5 µM (inactive)
- GI50 (MDA-N): 20.6 µM (inactive)
- GI50 (SR): 4.65 µM (inactive)
- GI50 (SF-539): 16.3 µM (inactive)
- GI50 (IGROV-1): 16.7 µM (inactive)
- GI50 (MCF7): 10.4 µM (inactive)
- GI50 (NCI-H23): 14.7 µM (inactive)
- GI50 (TK-10): 24.3 µM (inactive)
- GI50 (HOP-62): 15.2 µM (inactive)
- GI50 (SK-OV-3): 20.4 µM (inactive)
- GI50 (Hs-578T): 20 µM (inactive)
- GI50 (SNB-19): 32.9 µM (inactive)
- GI50 (DU-145): 25.9 µM (inactive)
- GI50 (ACHN): 11.8 µM (inactive)
- GI50 (OVCAR-8): 16.6 µM (inactive)
- GI50 (UACC-62): 12.6 µM (inactive)
- GI50 (A498): 17.5 µM (inactive)
- GI50 (NCI/ADR-RES): 9.75 µM (inactive)
- GI50 (HCT-116): 7.29 µM (inactive)
- GI50 (SNB-75): 29.4 µM (inactive)

From ChEMBL document CHEMBL1201862, “PubChem BioAssay data set” (2004)
